Reference: US6376175B1, “Methods of discovering chemicals capable of functioning as gene expression modulators” (OSI Pharmaceuticals, Inc., priority 1989, dated 2002)
Like-named read-outs stand apart in the source and are kept apart here.

Legend:
[1] = system: human G-CSF promoter; type: cell-based; conditions: 7-hour incubation, serum-free media
Text: A human bladder carcinoma cell line (U5637, ATCC number HTB 9) was used for transfection of plasmids containing the human Granulocyte-Colony Stimulating Factor (G-CSF) promoter (see below) and was maintained in RPMI medium supplemented with 10% FCS. For HTP screening, transfected 5637 clones were transferred to a serum free defined medium identical to that used for the NIH/3T3 clones.
The sequences of OL-1, OL-2 and OL-5 recognize the G-CSF promoter region, OL-4 recognizes the first intron/exon junction and OL-3 recognizes sequences within the second exon (32). One of the clones isolated from the leukocyte library using these oligonucleotide probes contains a 3.5 kb SalI-BamHI fragment of G-CSF genomic sequence consisting of 3.3 kb of promoter sequence and two hundred base pairs of the coding region. This fragment was inserted into the vector pGEM-7-Zf (Promega, Madison, Wis.) which had previously been digested with SalI/BamHI, resulting in the vector pJM710 (FIG. 7). pJM710 was then digested with PstI, and the resulting 1.6 kb fragment containing G-CSF upstream sequences and the first 15 bases of the G-CSF leader sequence was inserted into the PstI site of pGEM5-Luci (FIG. 8) to generate pG-Lucl (FIG. 9). This construct was then used for transfection of 5637 human bladder carcinoma cells as described below in section E3. pGEM5-Luci (FIG. 8) had previously been constructed by inserting the […]/SalI fragment from pSVLuci (FIG. 2) containing the luciferase coding sequence and the SV40 late polyadenylation signal into pGEM 5-Zf (Promega, Madison Wis.) digested with XhoI/SalI.
pG-LUC1 (FIG. 9) and pRSVNeo were co-transfected into 5637 human bladder carcinoma cells as described above. Selection of G418 resistant clones was as described above except for using a concentration of 0.1 mg/ml G418. Analysis of cell clones was performed as above except that a known inducer of G-CSF expression (1-5 µg/ml lipopolysaccharide (LPS), E. coli serotype 055:b5, Difco, Detroit, Mich. or Sigma, St. Louis, Mo.) was used in place of dexamethasone.
Cell plating: Dynatech Microlite 96 well plates were custom pretreated for cell attachment by Dynatech Laboratories, Inc. (Chantilly, Va.). Alternatively, the 96 well plates were treated with 50 µl per well of human fibronectin (hFN, 15 µg/ml in PBS, Collaborative Research, Bedford, Mass.) overnight at 37 C. hFN-treated plates were washed with PBS using an Ultrawash 2 Microplate Washer (Dynatech Labs), to remove excess hFN prior to cell plating. M10, 532, and G21 cells maintained in their respective serum media (with 0.2 mg/ml G418) were washed with PBS, harvested by trypsinization, and counted using a hemocytometer and the Trypan Blue exclusion method according to protocols provided by Sigma, St. Louis, Mo. Chemical Company. Cells were then diluted into serum free defined media (with 0.2 mg/ml G418), and 0.2 ml of cell suspension per well was plated onto Dynatech treated plates (532 and G21) or hFN-treated plates (M10) using a Cetus Pro/Pette (Cetus, Emeryville Calif.). Plates were incubated overnight at 37 C in a humidified 5% CO2 atmosphere.
Addition of Chemicals to Cells: Chemicals from the Oncogene Science file were dissolved in DMSO at concentrations of 3-30 mg/ml. A liquid handling laboratory work station (RSP 5052, Tecan U.S. Chapel Hill, N.C.) was used to dilute the chemicals (three dilutions; 5 fold, 110 fold, and 726 fold). 10 11 of each dilution were added to each of quadruplicate samples of cells contained in the wells of 96-well Dyantech Microlite Plates. […]

[2] = system: GM-CSF promoter; experiment: GM-CSF promoter-luciferase induction by known inducers, clones GM 1073, GM 1088, GM 1105; type: cell-based, human; conditions: for luciferase expression induction, clone 1088: GM-CSF reporter clone GM 1088; for luciferase expression induction, clone 1105: GM-CSF reporter clone GM 1105
Procedure: All routine subcloning procedures were performed as described by Maniatis et al. (1982), (28) unless otherwise noted. The about 0.7 kb HindIII/RsaI fragment of the GM-CSF clone (FIG. 20) was inserted into pUC 18 previously digested with HindIII/HincII. The about 0.7 kb HindIII/SmaI fragment was then isolated from the resulting vector and cloned into pUV 100 digested previously with HindIII/SnaBI, thereby generating pGMLUCI (FIG. 22.) In order to correctly fuse the GM-CSF ATG with the coding region of luciferase, four oligonucleotides (FIG. 21) were synthesized, phosphorylated, annealed, ligated, and inserted into pUC19 previously digested with Eco RI/XbaI, generating pGM-1 (FIG. 22). pGM-1 was then sequences (Sequenase Kit, US Biochemicals, Cleveland, Ohio) using the M13 forward (U.S. Biochem.) and reverse primers (Pharmacia, Piscataway, N.J.) to ensure that there were no mutations in the synthesized oligonucleotides. The about 1.8 kb BstEII/ScaI fragment from pGM-1 was then isolated and ligated to about 1.5 kb BstEII/ScaI fragment from pGMLUCI to generate pGM-2 (FIG. 22). pGM-2 was then digested with Hind III/XbaI and about 0.7 kb fragment was cloned into pUV 102 and pUV 103 previously digested with HindIII/XbaI. This generated pGMLS102 and pGMLS103 (FIG. 22), which contain 663 bp of GM-CSF sequence 5′ of the ATG fused directly to the second (correct) ATG of luciferase and the rest of the luciferase coding region. An additional about 1.4 kb of upstream sequences were cloned into this construct by isolating the about 1.4 kb SalI/HindIII fragment from the GM-CSF clone (FIG. 20), blunting the SalI end by filling in with Klenow polymerase, and inserting the fragment into pGMLS102 and pGMSL103 previously digested with HindIII/SnaBI. This step generated pGMLL102 and PGMLL103, respectively (FIG. 23). Finally, the pTKNEO2 and PTKNEO3 about 1.8 kb SfiI fragments were cloned directly into the SfiI site of pGMLL103 to generated pGMLL103 NEO2 and pGMLL103 NEO3.
6 clones generated by electroporation with pGMLL103 NEO3 (FIG. 23; Materials and Methods, section D.2) were subjected to further analysis as described above: GM 1073 (10 ug; circular); GM 1081, 1088 and 1090 (5 ug; linear); and GM 1098 and 1105 (10 ug; linear).
Promoter induction experiments were also conducted with the GM-CSF reporter cell lines GM 1073, GM 1088 and GM 1105, which were all shown to contain correctly inserted constructs (see above). […] Luciferase expression of clones 1088 and 1105 was induced by PMA 2.8 fold and 2 fold, respectively, while TNF-alpha induced both clones 2 fold.

Compound: CCCCCCCCCCCCCC(=O)O[C@@H]1[C@@H](C)[C@@]2(O)[C@@H](C=C(CO)C[C@]3(O)C(=O)C(C)=C[C@@H]23)[C@@H]2C(C)(C)[C@]12OC(C)=O [PMA, phorbo-myristate-acetate, reference compound]
- increase of luciferase expression directed by the G-CSF promoter, G 21 cells ([1]; absence of EGF): 34.6 fold
- increase of luciferase expression directed by the G-CSF promoter, G 21 cells ([1]; presence of EGF): 24.6 fold
- GM-CSF promoter induction, GM 1073 cells ([2]; 10.5 hours, 20 ng/ml PMA, serum-containing media): 3.4 fold
- luciferase expression induction, clone 1088 [2]: 2.8 fold
- luciferase expression induction, clone 1105 [2]: 2 fold
- GM-CSF promoter induction, GM 1073 cells ([2]; PMA, serum-free media): 7.5 fold

Compound: TNF-alpha
- increase of luciferase expression directed by the G-CSF promoter, G 21 cells ([1]; absence of EGF): 2.1 fold
- increase of luciferase expression directed by the G-CSF promoter, G 21 cells ([1]; presence of EGF): 2.8 fold
- luciferase expression induction, clone 1088 [2]: 2 fold
- luciferase expression induction, clone 1105 [2]: 2 fold
